This is an account of results in paper PMC12391121, “Identification and validation of the VEGF/p38MAPK/HSP27 pro-tumor inflammatory pathway: screening of active components from Patrinia villosa and evaluation of their drug-likeness” (Frontiers in Immunology, 2025).

The structures appear in SMILES notation.

One assay has as its target T1, HSP27 (Homo sapiens, UniProt P04792).
T1 construct: gene HSPB1; commercial recombinant human protein; labelled with Monolith RED-NHS
In words: microscale thermophoresis. The class given is binding. An excerpt:
microscale thermophoresis on HSP27
On the technique in general: MST reads how a fluorescent partner responds to local heating, with and without ligand.

For another assay, the target named is T2, p38MAPK (Homo sapiens, UniProt Q16539).
T2 construct: gene MAPK14; commercial recombinant human protein; labelled with Monolith RED-NHS
T2 sequence (Q16539 2-360): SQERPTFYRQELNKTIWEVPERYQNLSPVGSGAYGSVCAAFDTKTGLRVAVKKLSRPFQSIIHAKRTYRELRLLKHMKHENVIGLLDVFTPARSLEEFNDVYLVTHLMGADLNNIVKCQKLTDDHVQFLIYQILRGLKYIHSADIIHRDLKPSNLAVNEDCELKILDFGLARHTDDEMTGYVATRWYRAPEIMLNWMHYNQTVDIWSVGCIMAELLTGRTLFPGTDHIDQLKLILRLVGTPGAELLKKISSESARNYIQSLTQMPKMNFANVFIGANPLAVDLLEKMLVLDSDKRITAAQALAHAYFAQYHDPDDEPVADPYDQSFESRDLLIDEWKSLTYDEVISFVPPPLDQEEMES
In words: microscale thermophoresis. The format is binding.

T1 sequence (P04792 whole entry): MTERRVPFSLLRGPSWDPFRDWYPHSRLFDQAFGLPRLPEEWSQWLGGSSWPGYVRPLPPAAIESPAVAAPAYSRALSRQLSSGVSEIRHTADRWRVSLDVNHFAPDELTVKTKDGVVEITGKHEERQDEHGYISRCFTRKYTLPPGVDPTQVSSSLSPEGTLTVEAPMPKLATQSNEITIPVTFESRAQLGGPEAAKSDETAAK

Turning to `C[S+]([O-])c1ccc(-c2nc(-c3ccncc3)c(-c3ccc(F)cc3)[nH]2)cc1` (stereo not shown) [SB203580], the Kd (commonly the free concentration of one partner at which half of the binding sites on the other are occupied at equilibrium, for simple one-to-one binding) on HSP27 came out at 0.915 µM.
For `C[C@@H]1O[C@@H](OC[C@H]2O[C@@H](Oc3c(-c4ccc(O)c(O)c4)oc4cc(O)cc(O)c4c3=O)[C@H](O)[C@@H](O)[C@@H]2O)[C@H](O)[C@H](O)[C@H]1O` [Rutin], the Kd at HSP27 turned out to be 3.76 µM; at p38MAPK, 1.27 µM.
Take `C[C@@H]1O[C@@H](OC[C@H]2O[C@@H](Oc3c(-c4ccc(O)cc4)oc4cc(O)cc(O)c4c3=O)[C@H](O)[C@@H](O)[C@@H]2O)[C@H](O)[C@H](O)[C@H]1O` [Nicotiflorin]: the results for the equilibrium dissociation constant (Kd) at HSP27 and at p38MAPK were 4.47 µM and 1.4 µM, respectively.
For `O=C(/C=C/c1ccc(O)c(O)c1)O[C@@H]1[C@H](O)C[C@@](O)(C(=O)O)C[C@H]1OC(=O)/C=C/c1ccc(O)c(O)c1` [4,5-Dicqa], in that order: 3.64 µM and 1.71 µM.
